From the OPERA property sets (Mansouri et al. 2018)

Compound `CC(=O)Nc1ccc(NN=C(C#N)C#N)cc1` has a logP of 1.83. For `N#CC(C#N)=NNc1cccc(O)c1`, the logP was 2.28. For `CC(=O)c1ccc(NN=C(C#N)C#N)cc1`, the logP was 2.1. Compound `N#CC(C#N)=NNc1ccc(CCCl)cc1` has a logP of 3.58. Compound `N#CC(C#N)=NNc1ccc(Cl)cc1` has a logP of 3.39. Work on `N#CC(C#N)=NNc1ccc([N+](=O)[O-])cc1` yielded a logP of 2.37. Work on `N#CC(C#N)=NNc1ccccc1[N+](=O)[O-]` yielded a logP of 2.9. For `Cc1ccc(NN=C(C#N)C#N)cc1`, the logP was 3.2. Compound `N#CC(C#N)=NNc1cccc(Cl)c1` has a logP of 3.38. `N#CC(C#N)=NNc1ccc(OC(F)(F)F)cc1` gave a logP of 3.68.
